According to patent US8129398B2 (priority 2008, dated 2012):

Biological target: T1, HIV-integrase (Human immunodeficiency virus type 1 group M subtype B, UniProt P12497)
T1 construct: Recombinant integrase (0.26 ng) was incubated with the beads
Experiment: HIV-Integrase Inhibition Activity (SPA bead integration assay with P33 labeled target DNA)
Type: biochemical
Settings: recombinant integrase, class symbols; read-out: in vitro activity
In short: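 Strand integration read as bead-proximity CPM after P33 target DNA (0.1 fmol) and inhibitor were added to washed integrase–substrate DNA complexes on SPA beads. Enzyme bound 90 min at 37° C; EDTA (10 mM final) terminated reaction; IC50 graded A/B/C.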

Compound	IC50 [nM]
CC(=O)N1[C@@H]2C[C@@H]2C[C@H]1C(=O)NC12CCC(CC1)Cn1c2nc(C(=O)NCc2ccc(F)cc2)c(O)c1=O [Example 270, 7,10-Ethanopyrimido[1,2-a]azepine-2-carboxamide, 10-[[[(1R,3S,5R)-2-acetyl-2-azabicyclo[3.1.0]hex-3-yl]carbonyl]amino]-N-[(4-fluorophenyl)methyl]-4,6,7,8,9,10-hexahydro-3-hydroxy-4-oxo-]	< 10
CO[C@H]1C[C@@H](C(=O)NC23CCC(CC2)Cn2c3nc(C(=O)NCc3ccc(F)cc3)c(O)c2=O)N(C(C)=O)C1 [Example 271, 7,10-Ethanopyrimido[1,2-a]azepine-2-carboxamide, 10-[[[(2S,4S)-1-acetyl-4-methoxy-2-pyrrolidinyl]carbonyl]amino]-N-[(4-fluorophenyl)methyl]-4,6,7,8,9,10-hexahydro-3-hydroxy-4-oxo-]	< 10
CO[C@H]1C[C@@H](C(=O)NC23CCC(CC2)Cn2c3nc(C(=O)NCc3ccc(F)cc3)c(O)c2=O)N(S(C)(=O)=O)C1 [Example 272, 7,10-Ethanopyrimido[1,2-a]azepine-2-carboxamide, N-[(4-fluorophenyl)methyl]-4,6,7,8,9,10-hexahydro-3-hydroxy-10-[[[(2S,4S)-4-methoxy-1-(methylsulfonyl)-2-pyrrolidinyl]carbonyl]amino]-4-oxo-]	< 10
CO[C@@H]1C[C@@H](C(=O)NC23CCC(CC2)Cn2c3nc(C(=O)NCc3ccc(F)cc3)c(O)c2=O)N(C(C)=O)C1 [Example 273, 7,10-Ethanopyrimido[1,2-a]azepine-2-carboxamide, 10-[[[(2S,4R)-1-acetyl-4-methoxy-2-pyrrolidinyl]carbonyl]amino]-N-[(4-fluorophenyl)methyl]-4,6,7,8,9,10-hexahydro-3-hydroxy-4-oxo-]	< 10
CO[C@@H]1C[C@@H](C(=O)NC23CCC(CC2)Cn2c3nc(C(=O)NCc3ccc(F)cc3)c(O)c2=O)N(S(C)(=O)=O)C1 [Example 274, 7,10-Ethanopyrimido[1,2-a]azepine-2-carboxamide, N-[(4-fluorophenyl)methyl]-4,6,7,8,9,10-hexahydro-3-hydroxy-10-[[[(2S,4R)-4-methoxy-1-(methylsulfonyl)-2-pyrrolidinyl]carbonyl]amino]-4-oxo-]	< 10
Cc1cc(CNC(=O)c2nc3n(c(=O)c2O)CC2CCC3(NC(=O)[C@@H]3CCN3S(C)(=O)=O)CC2)ccc1F [Example 276, 7,10-Ethanopyrimido[1,2-a]azepine-2-carboxamide, N-[(4-fluoro-3-methylphenyl)methyl]-4,6,7,8,9,10-hexahydro-3-hydroxy-10-[[[(2S)-1-(methylsulfonyl)-2-azetidinyl]carbonyl]amino]-4-oxo-]	< 10
C=C[C@@H]1C[C@]1(NC(C)=O)C(=O)NC12CCC(CC1)Cn1c2nc(C(=O)NCc2ccc(F)cc2)c(O)c1=O [Example 277, 7,10-Ethanopyrimido[1,2-a]azepine-2-carboxamide, 10-[[[(1R,2S)-1-(acetylamino)-2-ethenylcyclopropyl]carbonyl]amino]-N-[(4-fluorophenyl)methyl]-4,6,7,8,9,10-hexahydro-3-hydroxy-4-oxo-]	10 to 100
C=C[C@@H]1C[C@]1(NS(C)(=O)=O)C(=O)NC12CCC(CC1)Cn1c2nc(C(=O)NCc2ccc(F)cc2)c(O)c1=O [Example 278, 7,10-Ethanopyrimido[1,2-a]azepine-2-carboxamide, 10-[[[(1R,2S)-2-ethenyl-1-[(methylsulfonyl)amino]cyclopropyl]carbonyl]amino]-N-[(4-fluorophenyl)methyl]-4,6,7,8,9,10-hexahydro-3-hydroxy-4-oxo-]	< 10
CO[C@H]1C[C@@H](C(=O)NC23CCC(CC2)Cn2c3nc(C(=O)NCc3ccc(F)c(C)c3)c(O)c2=O)N(C(=O)c2cccn2C)C1 [Example 279, 7,10-Ethanopyrimido[1,2-a]azepine-2-carboxamide, N-[(4-fluoro-3-methylphenyl)methyl]-4,6,7,8,9,10-hexahydro-3-hydroxy-10-[[[(2S,4S)-4-methoxy-1-[(1-methyl-1H-pyrrol-2-yl)carbonyl]-2-pyrrolidinyl]carbonyl]amino]-4-oxo-]	< 10
CO[C@H]1C[C@@H](C(=O)NC23CCC(CC2)Cn2c3nc(C(=O)NCc3ccc(F)c(C)c3)c(O)c2=O)N(C(=O)c2ccno2)C1 [Example 280, 7,10-Ethanopyrimido[1,2-a]azepine-2-carboxamide, N-[(4-fluoro-3-methylphenyl)methyl]-4,6,7,8,9,10-hexahydro-3-hydroxy-10-[[[(2S,4S)-1-(5-isoxazolylcarbonyl)-4-methoxy-2-pyrrolidinyl]carbonyl]amino]-4-oxo-]	< 10
Cc1cc(CNC(=O)c2nc3n(c(=O)c2O)CC2CCC3(NC(=O)C(C)(C)n3cccn3)CC2)ccc1F [Example 281, 7,10-Ethanopyrimido[1,2-a]azepine-2-carboxamide, N-[(4-fluoro-3-methylphenyl)methyl]-4,6,7,8,9,10-hexahydro-3-hydroxy-10-[[2-methyl-1-oxo-2-(1H-pyrazol-1-yl)propyl]amino]-4-oxo-]	< 10
CC(=O)N1CC[C@H](C(=O)NC23CCC(CC2)Cn2c3nc(C(=O)NCc3ccc(F)c(C)c3)c(O)c2=O)C1 [Example 282, 7,10-Ethanopyrimido[1,2-a]azepine-2-carboxamide, 10-[[[(3S)-1-acetyl-3-pyrrolidinyl]carbonyl]amino]-N-[(4-fluoro-3-methylphenyl)methyl]-4,6,7,8,9,10-hexahydro-3-hydroxy-4-oxo-]	< 10
Cc1cc(CNC(=O)c2nc3n(c(=O)c2O)CC2CCC3(NC(=O)[C@H]3CCN(S(C)(=O)=O)C3)CC2)ccc1F [Example 283, 7,10-Ethanopyrimido[1,2-a]azepine-2-carboxamide, N-[(4-fluoro-3-methylphenyl)methyl]-4,6,7,8,9,10-hexahydro-3-hydroxy-10-[[[(3S)-1-(methylsulfonyl)-3-pyrrolidinyl]carbonyl]amino]-4-oxo-]	< 10
COC(=O)c1cn(C(C)(C)C(=O)NC23CCC(CC2)Cn2c3nc(C(=O)NCc3ccc(F)c(C)c3)c(O)c2=O)nn1 [Example 284, 1H-1,2,3-Triazole-4-carboxylic acid, 1-[2-[[2-[[[(4-fluoro-3-methylphenyl)methyl]amino]carbonyl]-6,7,8,9-tetrahydro-3-hydroxy-4-oxo-7,10-ethanopyrimido[1,2-a]azepin-10(4H)-yl]amino]-1,1-dimethyl-2-oxoethyl]-, methyl ester]	< 10
Cc1cc(CNC(=O)c2nc3n(c(=O)c2O)CC2CCC3(NC(=O)C(C)(C)n3cc(C(=O)O)nn3)CC2)ccc1F [Example 285, 1H-1,2,3-Triazole-4-carboxylic acid, 1-[2-[[2-[[[(4-fluoro-3-methylphenyl)methyl]amino]carbonyl]-6,7,8,9-tetrahydro-3-hydroxy-4-oxo-7,10-ethanopyrimido[1,2-a]azepin-10(4H)-yl]amino]-1,1-dimethyl-2-oxoethyl]-]	< 10
CNC(=O)c1cn(C(C)(C)C(=O)NC23CCC(CC2)Cn2c3nc(C(=O)NCc3ccc(F)c(C)c3)c(O)c2=O)nn1 [Example 286, 7,10-Ethanopyrimido[1,2-a]azepine-2-carboxamide, N-[(4-fluoro-3-methylphenyl)methyl]-4,6,7,8,9,10-hexahydro-3-hydroxy-10-[[2-methyl-2-[4-[(methylamino)carbonyl]-1H-1,2,3-triazol-1-yl]-1-oxopropyl]amino]-4-oxo-]	< 10
Cc1cc(CNC(=O)c2nc3n(c(=O)c2O)CC2CCC3(NC(=O)C(C)(C)n3cc(C(=O)N(C)C)nn3)CC2)ccc1F [Example 287, 7,10-Ethanopyrimido[1,2-a]azepine-2-carboxamide, 10-[[2-[4-[(dimethylamino)carbonyl]-1H-1,2,3-triazol-1-yl]-2-methyl-1-oxopropyl]amino]-N-[(4-fluoro-3-methylphenyl)methyl]-4,6,7,8,9,10-hexahydro-3-hydroxy-4-oxo-]	< 10
Cc1cc(CNC(=O)c2nc3n(c(=O)c2O)CC2CCC3(NC(=O)C(C)(C)n3cc(C(=O)N4CCN(C)CC4)nn3)CC2)ccc1F [Example 288, 7,10-Ethanopyrimido[1,2-a]azepine-2-carboxamide, N-[(4-fluoro-3-methylphenyl)methyl]-4,6,7,8,9,10-hexahydro-3-hydroxy-10-[[2-methyl-2-[4-[(4-methyl-1-piperazinyl)carbonyl]-1H-1,2,3-triazol-1-yl]-1-oxopropyl]amino]-4-oxo-]	< 10
CC(=O)N1CC(F)(F)C[C@H]1C(=O)NC12CCC(CC1)Cn1c2nc(C(=O)NCc2ccc(F)c(C)c2)c(O)c1=O [Example 289, 7,10-Ethanopyrimido[1,2-a]azepine-2-carboxamide, 10-[[[(2S)-1-acetyl-4,4-difluoro-2-pyrrolidinyl]carbonyl]amino]-N-[(4-fluoro-3-methylphenyl)methyl]-4,6,7,8,9,10-hexahydro-3-hydroxy-4-oxo-]	< 10
Cc1cc(CNC(=O)c2nc3n(c(=O)c2O)CC2CCC3(NC(=O)[C@@H]3CC(F)(F)CN3S(C)(=O)=O)CC2)ccc1F [Example 290, 7,10-Ethanopyrimido[1,2-a]azepine-2-carboxamide, 10-[[[(2S)-4,4-difluoro-1-(methylsulfonyl)-2-pyrrolidinyl]carbonyl]amino]-N-[(4-fluoro-3-methylphenyl)methyl]-4,6,7,8,9,10-hexahydro-3-hydroxy-4-oxo-]	< 10
Cc1cc(CNC(=O)c2nc3n(c(=O)c2O)CC2CCC3(NC(=O)C(C)n3cncn3)CC2)ccc1F (stereo not drawn) [Example 291, 7,10-Ethanopyrimido[1,2-a]azepine-2-carboxamide, N-[(4-fluoro-3-methylphenyl)methyl]-4,6,7,8,9,10-hexahydro-3-hydroxy-4-oxo-10-[[1-oxo-2-(1H-1,2,4-triazol-1-yl)propyl]amino]-]	< 10
